Values quoted from earlier work, collected in US20020151447A1, “Reduced toxicity 1-bromopropane cleaning agent production process” (POLYMER SOLVENTS, INC., priority 1997, published 2002).

Legend:
mammals = details: in vivo
[1] = 8 hour workday

## CCCBr [1-bromopropane]
mammals
  toxicity to mammals: relatively low toxicity
[1]
  workplace exposure limit for handlers: 100 ppm
